Reference: patent publication US11267853B2, “Carbohydrate tethering at cell surfaces to induce immune response” (University of Rhode Island Board of Trustees, priority 2019, dated 2022)
Primed or numbered codes have the meaning given here. Where no end group is shown, it is not given here. Side-chain parts run from the residue outwards. maleimide = maleimide group (rhamnose-PEG12-maleimide) coupled to the N-terminal Cys of the peptide; PEG12′ = polyethylene glycol spacer of 12 units; Rha = rhamnose

What was measured:
[1] = tested on: HeLa cells (tumor spheroids); test: Lectin-Cy3 binding to tumor spheroids pre-treated with rhamnose-pHLIP constructs (fluorescence confocal imaging); type: cell-based; conditions: HeLa spheroids pre-treated with 0-2 μM construct at pH 6.3, 37° C., 30 min, washed; then Lectin-Cy3 at pH 7.4; compared with lectin-Cy3 alone
Procedure: Induction of an immunological response requires a proper positioning of carbohydrate epitope at the surface of tumor cells. This was verified on 3-D tumor cancer cell culture (tumor spheroids). Briefly, a 2% agarose solution was made by dissolving in pH 7.4 PBS. 150 μL of the solution is pipetted into each well of a 48-well flat bottom tissue culture plate. After the agarose gel sufficiently settled (˜1 h), 150 μL of DMEM supplemented with 10% FBS and ciprofloxacin.HCl was added to each well. The covered plate was left in a humidified atmosphere at 37° C. and 5% CO2 in cell culture incubator for 24 h. On the next day, the excess medium was removed from the agarose layer. HeLa cells (10,000 cells) in 200 μL of DMEM containing 2% matrigel were added into each well and incubated for 3-4 days to allow the formation of spheroids. Matrigel was dissolved on ice overnight and added in ice cold DMEM at a concentration of 2.5% (to obtain a final concentration of 2% once added to the wells). Then the mixture was heated to 37° C. before being combined with the cells. Tumor spheroids were incubated in 50 μL of PBS buffer, pH 6.3 containing 0-2 μM Rha-pHLIP® or Rha-PEG12-pHLIP® in a humidified atmosphere of 5% CO2 at 37° C. for 30 min. After treatment, the spheroids were washed several times in 1 mL of PBS. […]

[2] = tested on: B16-F10 melanoma murine cancer cells (flank tumor); test: B16-F10 melanoma tumor weight in tri-Gal-immunized A3galt2-knockout mice after IP treatment; type: in vivo; conditions: B16-F10 flank tumors, IP injections 450 μl of 80 μM for 10 consecutive days (total 60 mg/kg), versus non-treated control group
Text: Mice deficient in α1-3 gylactosyltransferase 2 (A3galt2) on 129/SvEv-[…] background heterozygous breeding pairs was obtained from Taconic Biosciences. The knockout mouse model is described in the article entitled “Normal development and function of invariant natural killer T cells in mice with isoglobotrihexosylceramide (iGb3) deficiency” by Porubsky et al. PNAS 2007 Apr. 3; 104(14): 5977-5982, incorporated herein by reference in its entirety.
All animal studies with the Gal-pHLIP® construct were conducted according to the animal protocol AN1920-003 approved by the Institutional Animal Care and Use Committee at the University of Rhode Island, in compliance with the principles and procedures outlined by the National Institutes of Health for the care and use of animals. Homo- and heterozygous A3galt2-knockout female and male mice on 129/SvEv-C57BL/6J background were used in the study.
First, immunization of mice was performed to develop antibodies against tri-Gal epitope. Briefly, at day 1 mice were immunized with Galα1-3Galβ1-4Glc-HSA (HSA: human serum albumin) from Dextra Laboratories, 20 μg/mouse emulsified in complete Freund's adjuvant. Booster injections of Galα1-3Galβ1-4Glc-HSA emulsified in incomplete Freund's adjuvant were administered at days 13, 20 and 27. […]

Substance | binding of lectin-Cy3 (fluorescence) to tumor spheroids [1] | tumor weight reduction [2]
AS(Rha)DDQNPWRAYLDLLFPTDTLLLDLLWA [Rha-pHLIP®] | much stronger binding of lectin-Cy3 | –
Rha-PEG12-pHLIP®: Rhamnose-PEG12-malemide coupled with single Cys at N-terminal end of pHLIP® ACDDQNPWRAYLDLLFPTDTLLLDLLWA (SEQ ID NO: 469) (AC([maleimide-PEG12′-Rha])DDQNPWRAYLDLLFPTDTLLLDLLWA) | much stronger binding of lectin-Cy3 | –
tri-Gal-PEG4-pHLIP®: tri-Gal-PEG4 (Galα(1,3)Galβ(1,4)Glc-PEG4) coupled with pHLIP® ACDDQNPWRAYLDLLFPTDTLLLDLLWA (SEQ ID NO: 469) (not fully specified (residue 2); also: tri-Gal-PEG4 (Galα(1,3)Galβ(1,4)Glc-PEG4) coupled, site not given here) | – | About 65%
